# Results reported in patent US20220370310A1, “SURFACE-TREATED MAGNESIUM OR CALCIUM ION-CONTAINING MATERIALS AS WHITE PIGMENTS IN ORAL CARE COMPOSITIONS” (CHILDREN'S MEDICAL CENTER CORPORATION, priority 2020, published 2022).
# Assays:
# [1] = test system: B16OVA cells; experiment: Immunization prior to tumor inoculation, B16OVA challenge; type: in vivo, C57BL/6 mice; conditions: s.c. immunization with B16OVA WTL, challenge 15 days later
# Protocol: Whole tumor cell lysates preparation: To prepare whole tumor cell lysates (WTL) for immunization, tumor cell lines were cultured for 4-5 days in complete DMEM. When cells became confluent, supernatants were collected, and the cells were washed and dissociated using trypsin-EDTA (Gibco). Tumor cell lines were then resuspended at 5×10^6 cells/ml in their collected culture supernatant, then lysed by 3 cycles of freeze-thawing.
# In vivo immunization and tumor challenges: For immunization prior tumor inoculation, C57BL/6 mice were injected subcutaneously (s.c.) into the right flank with PBS (unimmunized), WTL alone or with LPS, or WTL plus LPS and OxPAPC or PGPC all emulsified in incomplete Freud's adjuvant (IFA). In some experiments, LPS is replaced by MPLA. […] Tumor-free mice were re-challenged s.c. into the upper back with a lethal dose of 5×10^5 viable B16OVA or B16F-10 cells, or 1×10^6 of viable MC38-OVA cells as indicated.
# Tumor Infiltration: To assess the frequency of tumor-infiltrating lymphocytes (TIL) in immunized mice, tumors were harvested when their size reached 1.8-2 cm. Tumors were dissociated using the tumor Dissociation Kit (Milteny Biotec) and the gentleMACS dissociator following the manufacturer's protocol. […] CD45^+ cells were positively selected using CD45 microbeads (Milteny Biotec), and T cell infiltration was assessed by flow cytometry. […]
# [2] = test system: antigen-specific T cell responses; experiment: In vivo OVA immunization and T cell re-stimulation; parameters: species or system C57BL/6J mice
# Protocol: Flow cytometry: After FcR blockade, 7 days BMDCs were resuspended in MACS buffer (PBS with 1% FCS and 2 mM EDTA), and stained with the following fluorescently conjugated antibodies (BioLegend): anti-CD11c (clone N418), anti-I-A/I-E (clone M5/114.15.2), anti-CD40 (clone 3/23), anti-CD80(16-10A1), anti-CD69 clone (H1.2F3), anti-H-2Kb (clone AF6-88.5). Single cell suspension from the tumor or draining inguinal lymph nodes, or skin inguinal adipose tissue were resuspended in MACS buffer (PBS with 1% FCS and 2 mM EDTA), and stained with the following fluorescently conjugated antibodies (BioLegend): anti-CD8a (clone 53-6.7), anti-CD4 (clone RM4-5), anti-CD44 (clone IM7), anti-CD62L (MEL-14), anti-CD3 (17A2), anti-CD103 (2E7), anti-CD69 clone (H1.2F3), anti-CD45 (A20 or 30F11). LIVE/DEAD™ Fixable Violet Dead Cell Stain Kit (Molecular probes) was used to determine the viability of cells, and cells were stained for 20 minutes in PBS at 4° C. Draining inguinal lymph nodes T cells were stained with OVA-peptide tetramers at room temperature for 1 h. PE-conjugated H2K(b) SIINFEKL (OVA 257-264; SEQ ID NO: 1) and APC conjugated I-A(b) AAHAEINEA (OVA 329-337; SEQ ID NO: 2) were used. I-A(b) and H2K(b) associated with CLIP peptides were used as isotype controls. […] Data were analyzed using FlowJo software.
# Intracellular staining: For intracellular cytokine staining, cells were stimulated with 50 ng/ml phorbol 12-myristate 13-acetate (PMA) and 500 ng/ml ionomycin (Sigma-Aldrich) in the presence of GolgiStop (BD) and brefeldin A for 4-5 h. […] Data were analyzed using FlowJo software.
# In vivo immunization and T cell re-stimulation: Female C57BL/6J mice aged 8 weeks, were immunized subcutaneously (s.c.) on the left lower back with either 150 μg/mouse endotoxin-free OVA plus 10 μg/mouse LPS emulsified in incomplete Freund's adjuvant, or with 150 μg/mouse endotoxin-free OVA, plus 65 μg/mouse oxPAPC or PGPC, plus 10 μg/mouse LPS emulsified in incomplete Freund's adjuvant. […] Secretion of IFNγ, IL-10 and IL-2 were measured by ELISA 5 days later. […]
# [3] = test system: OT-I and OT-II T cells; experiment: OT-I and OT-II in vitro T-cell stimulation; type: cell-based, mouse; conditions: OVA-loaded BMDCs pretreated with stimulus, FIG. 1F
# Protocol: OT-I and OT-II in vitro T-cell stimulation: Splenic CD8+ and CD4^+ T cells were sorted from OT-I and OT-II mice by magnetic cell sorting with anti-CD8 beads or anti-CD4 beads respectively (Miltenyi Biotech). Sorted T cells were then seeded in 96-well plates at a concentration of 100.000 cells per well in the presence of either 20.000 or 10.000 DCs (5:1 or 10:1 ratio) that were pretreated with either LPS (activation stimuli) or LPS+PGPC (hyperactivation stimuli) or LPS+Alum (pyroptotic stimuli) and pulsed (or not) with OVA protein or SIINFEKL (SEQ ID NO: 1) peptide at 100 μg/ml for 2 hours. 5 days post culture, supernatants were collected and clarified by centrifugation for short-term storage at −20° C. and cytokine measurement by ELISA.
# Intracellular staining: For intracellular cytokine staining, cells were stimulated with 50 ng/ml phorbol 12-myristate 13-acetate (PMA) and 500 ng/ml ionomycin (Sigma-Aldrich) in the presence of GolgiStop (BD) and brefeldin A for 4-5 h. Cells were then washed twice with PBS, and stained with LIVE/DEAD™ Fixable violet or green Dead Cell Stain Kit (Molecular probes) in PBS for 20 min at 4° C. Cells were washed with MACS buffer, and stained for appropriate surface markers for 20 min at 4° C. […] Data were analyzed using FlowJo software.
# [4] = test system: BMDCs; conditions: prior work (Zanoni et al., 2016); cited from earlier work
Compound,protection against B16OVA tumor challenge [1],"effector and memory T cell generation in dLN ([2]; 7 and 40 days post-immunization with OVA (+LPS), CD44/CD62L flow cytometry)","antigen-specific tetramer+IFNγ+ T cell responses ([2]; WT mice, 7 days post immunization with OVA, re-stimulated 7 days with OVA-loaded BMDC)",IL-10 and IL-13 release by OT-II T cells [3],TNFα and IL-1β release by LPS-activated BMDCs [4],TH1/TH2 phenotype of the T cell response ([2]; immunization with OVA)
"CCCCCCCCCCCCCCCC(=O)OC[C@H](COP(=O)([O-])OCC[N+](C)(C)C)OC(=O)CCCC(=O)O [PGPC, [(2R)-2-(4-carboxybutanoyloxy)-3-hexadecanoyloxypropyl] 2-(trimethylazaniumyl)ethyl phosphate]",confers optimal protection,enhance the magnitude of effector and memory T cell generation,highest frequency of tetramer+IFNγ+ responses,–,–,–
lipopolysaccharide [LPS],–,–,–,"large amounts of IL-10, and IL-13",release TNFα but not IL-1β,mixed TH1 and TH2 phenotype
